Experimental data published in PubChem BioAssay (NCI).
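96-well plates; 48 h exposure; 5 concentrations. Endpoints by linear interpolation between flanking doses. Not reached: highest tested concentration assigned. TGI: concentration producing complete growth inhibition.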

How the values were obtained:
Assay in all cases: NCI anticancer screen, dose series, 48 h
786-0 renal = tested on: 786-0 renal
A549 NSCLC = tested on: A549 NSCLC
ACHN renal = tested on: ACHN renal
BT-549 breast = tested on: BT-549 breast
CAKI-1 renal = tested on: CAKI-1 renal
CCRF-CEM leukemia = tested on: CCRF-CEM leukemia
COLO 205 colon = tested on: COLO 205 colon
DU-145 prostate = tested on: DU-145 prostate
EKVX NSCLC = tested on: EKVX NSCLC
HCC-2998 colon = tested on: HCC-2998 colon
HCT-116 colon = tested on: HCT-116 colon
HCT-15 colon = tested on: HCT-15 colon
HL-60(TB) leukemia = tested on: HL-60(TB) leukemia
HOP-62 NSCLC = tested on: HOP-62 NSCLC
HOP-92 NSCLC = tested on: HOP-92 NSCLC
HS 578T breast = tested on: HS 578T breast
HT29 colon = tested on: HT29 colon
IGROV1 ovarian = tested on: IGROV1 ovarian
K-562 leukemia = tested on: K-562 leukemia
KM12 colon = tested on: KM12 colon
LOX IMVI melanoma = tested on: LOX IMVI melanoma
M14 melanoma = tested on: M14 melanoma
MALME-3M melanoma = tested on: MALME-3M melanoma
MCF7 breast = tested on: MCF7 breast
MDA-MB-231 breast = tested on: MDA-MB-231 breast
MDA-MB-435 = tested on: MDA-MB-435
MDA-N = tested on: MDA-N
MOLT-4 leukemia = tested on: MOLT-4 leukemia
NCI-H226 lung = tested on: NCI-H226 lung
NCI-H23 lung = tested on: NCI-H23 lung
NCI-H460 lung = tested on: NCI-H460 lung
NCI-H522 lung = tested on: NCI-H522 lung
NCI/ADR-RES ovarian = tested on: NCI/ADR-RES ovarian
OVCAR-3 ovarian = tested on: OVCAR-3 ovarian
OVCAR-4 ovarian = tested on: OVCAR-4 ovarian
OVCAR-5 ovarian = tested on: OVCAR-5 ovarian
OVCAR-8 ovarian = tested on: OVCAR-8 ovarian
PC-3 prostate = tested on: PC-3 prostate
RPMI-8226 leukemia = tested on: RPMI-8226 leukemia
SF-268 CNS = tested on: SF-268 CNS
SF-295 CNS = tested on: SF-295 CNS
SF-539 CNS = tested on: SF-539 CNS
SK-MEL-2 melanoma = tested on: SK-MEL-2 melanoma
SK-MEL-28 melanoma = tested on: SK-MEL-28 melanoma
SK-OV-3 ovarian = tested on: SK-OV-3 ovarian
SN12C renal = tested on: SN12C renal
SNB-19 CNS = tested on: SNB-19 CNS
SNB-75 CNS = tested on: SNB-75 CNS
SR leukemia = tested on: SR leukemia
SW-620 colon = tested on: SW-620 colon
TK-10 renal = tested on: TK-10 renal
U251 CNS = tested on: U251 CNS
UACC-257 melanoma = tested on: UACC-257 melanoma
UACC-62 melanoma = tested on: UACC-62 melanoma
UO-31 renal = tested on: UO-31 renal

Measured: TGI

C=C1C[C@]23CC[C@@H]4C(CO)(CO)CC(=O)C[C@]4(C)[C@@H]2C(O)C[C@H]1C3 (stereo not given in full)
> 100 µM: all assays above
